Data published in patent US6586173B2, “Methods for the detection of amino acid decarboxylases” (priority 1999, dated 2003).
Several values for one entry are separate records, joined by “and”; a condition that tells them apart may be missing. Identical values can stand only once. Like-named read-outs stand apart in the source and are kept apart here. No end group written: not given here. *: point of attachment. AMC = Cc1cc(=O)oc2cc(N*)ccc12

What was measured:
D. immitis L3 larvae = assay: Larval culture assay, molting of L3 larvae counted by shed cuticles; type: cell-based, Dirofilaria immitis
Di-ADC [1] = assay: Effect of inhibitors on cleavage of H-Phe-AMC by Di-ADC (D. immitis L3/L4 ES); type: biochemical, Dirofilaria immitis
Phe-DC [2] = assay: Inhibitor assay with commercially prepared Phe-DC as enzyme source; type: biochemical
Tyr-DC = target: T1, Tyr-DC (Enterococcus faecalis, UniProt P0DTQ4); assay: Inhibitor assay with commercially prepared Tyr-DC as enzyme source; type: biochemical
T1 sequence (P0DTQ4 1-620): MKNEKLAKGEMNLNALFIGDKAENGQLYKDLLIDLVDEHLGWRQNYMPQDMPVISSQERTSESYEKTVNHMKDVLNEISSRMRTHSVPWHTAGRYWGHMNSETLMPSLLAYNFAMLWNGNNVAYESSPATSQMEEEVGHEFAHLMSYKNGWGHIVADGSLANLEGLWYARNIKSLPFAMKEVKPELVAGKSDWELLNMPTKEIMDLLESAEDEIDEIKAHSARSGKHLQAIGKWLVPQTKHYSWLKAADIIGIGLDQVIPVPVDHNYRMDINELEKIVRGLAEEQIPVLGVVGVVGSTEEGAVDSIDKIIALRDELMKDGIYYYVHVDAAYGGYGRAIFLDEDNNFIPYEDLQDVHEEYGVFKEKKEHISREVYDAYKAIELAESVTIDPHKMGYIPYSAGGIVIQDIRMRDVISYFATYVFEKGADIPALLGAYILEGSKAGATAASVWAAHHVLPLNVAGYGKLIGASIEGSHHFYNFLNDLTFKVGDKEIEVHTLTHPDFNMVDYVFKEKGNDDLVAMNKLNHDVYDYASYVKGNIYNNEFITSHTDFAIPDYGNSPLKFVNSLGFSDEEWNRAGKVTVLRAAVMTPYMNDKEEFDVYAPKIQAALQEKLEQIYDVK

D. immitis L3/L4 ES = type: biochemical, Dirofilaria immitis; conditions: pH 7.5
[3] = target: T2, tyrosine decarboxylase (Tyr-DC) (Enterococcus faecalis, UniProt P0DTQ4); assay: Substrate specificity assay on commercially prepared Tyr-DC; type: biochemical; conditions: as Example 1
T2 sequence (P0DTQ4 1-620): T1 sequence (P0DTQ4 1-620)

[4] = test system: phenylalanine decarboxylase (Phe-DC); assay: Substrate specificity assay on commercially prepared Phe-DC; type: biochemical; conditions: as Example 1
Phe-DC [5] = assay: Enzyme kinetics of Phe-DC with AMC substrates (fluorimetric assay); type: biochemical; conditions: substrate 0.0016 to 0.2 mM, double-reciprocal plot
Protocol: E. Enzyme kinetics, as measured by Michaelis constant (Km) and maximal velocity (Vmax), can be used to characterize the activity of an enzyme towards a given substrate under defined conditions. Enzymatic reactions were performed under the fluorimetric assay conditions described in Example 1 using Di-ADC and commercially prepared Phe-DC as the enzymes and H-Phe-AMC, H-Tyr-AMC and H-Trp-AMC as the substrates. One μL of purified adult Di-ADC, prepared as described in Example 2 through the gel filtration chromatography step, or 80 micro units (μU) (11.4 μg) of Phe-DC were incubated with each substrate at substrate concentrations ranging from 0.0016 to 0.2 mM. Each reaction was carried out in duplicate in PBS reaction buffer and monitored using the fluorimetric method described in Example 1. The values of apparent Km and Vm, of Di-ADC and Phe-DC for the substrates H-Phe-AMC, H-Tyr-AMC and H-Trp-AMC were calculated from a double-reciprocal plot of 1/v against 1/[substrate].

Di-ADC [6] = assay: Enzyme kinetics of Di-ADC with AMC substrates (fluorimetric assay); type: biochemical, Dirofilaria immitis; conditions: substrate 0.0016 to 0.2 mM, double-reciprocal plot
Di-ADC [7] = assay: Carbon dioxide release on decarboxylation of L-phenylalanine by Di-ADC (INFINITY CO2 kit); type: biochemical, Dirofilaria immitis; conditions: 5 mM L-phenylalanine, 37° C., 45 minutes
Phe-DC [8] = assay: Carbon dioxide release on decarboxylation of L-phenylalanine by Phe-DC (control reaction); type: biochemical; conditions: 375 U Phe-DC
Phe-DC [9] = assay: Formation of dopamine from dopa by Phe-DC; type: biochemical; conditions: 172 μU Phe-DC, 0.5 mM L-dopa, 37° C., 30 minutes
Di-ADC [10] = assay: Formation of dopamine from dopa by Di-ADC; type: biochemical, Dirofilaria immitis; conditions: 10 μl Di-ADC, 0.5 mM L-dopa, 37° C., 30 minutes
[11] = compared with inhibition of Di-ADC

Q: Which “% Inhibition of molting of L3 larvae” value (D. immitis L3 larvae; 0.001 mM, 3 days culture) does the source give for O=c1oc(Cl)c(Cl)c2ccccc12 [3,4-DCI, 3,4-Dichioroisocoumarin] here?
A: The value was 28.6%.

Q: What about the “% Inhibition of molting of L3 larvae” value (D. immitis L3 larvae; 0.01 mM, 3 days culture) of the same compound?
A: Its value is 40.9%.

Q: And the “% Inhibition of molting of L3 larvae” value (D. immitis L3 larvae; 0.1 mM, 3 days culture)?
A: Its value is 100%.

Q: What about the “inhibition of the molting process (in words)” value (D. immitis L3 larvae; final concentration of 0.1 mM) of the same compound?
A: Its value is “completely inhibited the molting process”.

Q: What about the “inhibition of Di-ADC activity relative to Phe-DC or Tyr-DC activity” value (Di-ADC [1]; comparison between enzymes) of the same compound?
A: The value was “more strongly”.

Q: And the “sensitivity of the enzyme activity (H-Phe-AMC cleavage) to inhibitor” value (Di-ADC [1]; inhibitor concentrations of Table II, pre-incubated 30 minutes at 37° C.)?
A: The value was “sensitive”.

Q: NCCc1c[nH]c2ccc(O)cc12 [5-HT, 5-hydroxytryptamine] was tested. Which “inhibition of Phe-DC activity” value (Phe-DC [2]; [11]) did it give?
A: The value was “at levels similar to the level that each inhibited Di-ADC”.

Q: And the “inhibition of Tyr-DC activity” value (Tyr-DC; [11])?
A: Its value is “at levels similar to the level that each inhibited Di-ADC”.

Q: N=C(N)c1ccc(CS(=O)(=O)F)cc1 [APMSF] was tested. Which “% Inhibition of molting of L3 larvae” value (D. immitis L3 larvae) did it give?
A: Its value is 19.7% and 24.2% and 14.1%.

Q: What about the “inhibition of the molting of L3 to L4 (in words)” value (D. immitis L3 larvae) of the same compound?
A: The value was “unable to completely inhibit the molting”.

Q: O=C(O)c1cc[c]([Hg][Cl])cc1 [CMBA, p-chloromercuribenzoic acid] was tested. Which “inhibition of Phe-DC activity” value (Phe-DC [2]) did it give?
A: The value was “at levels similar to the level that each inhibited Di-ADC”.

Q: And the “inhibition of Tyr-DC activity” value (Tyr-DC)?
A: Its value is “at levels similar to the level that each inhibited Di-ADC”.

Q: How did the “D. immitis L3/L4 ES Activity (cleavage of substrate)” value (shortened to “D. immitis L3/L4 ES Activity”) (D. immitis L3/L4 ES) turn out when Cc1cc(=O)oc2cc(NC(=O)[C@H](Cc3ccccc3)NC(=O)CCCC(=O)O)ccc12 [Glutaryl—Phe—AMC] was run?
A: The value was “No”.

Q: Cc1cc(=O)oc2cc(NC(=O)[C@H](C)N)ccc12 [H—Ala—AMC] was tested. Which “D. immitis L3/L4 ES Activity” value (D. immitis L3/L4 ES) did it give?
A: Its value is “No”.

Q: Cc1cc(=O)oc2cc(NC(=O)[C@@H](N)CCCN=C(N)N)ccc12 [H—Arg—AMC] was tested. Which “D. immitis L3/L4 ES Activity” value (D. immitis L3/L4 ES) did it give?
A: Its value is “No”.

Q: Which “D. immitis L3/L4 ES Activity” value (D. immitis L3/L4 ES) does the source give for Cc1cc(=O)oc2cc(NC(=O)[C@@H](N)CCC(=O)O)ccc12 [H—Glu—AMC] here?
A: Its value is “No”.

Q: For Cc1cc(=O)oc2cc(NC(=O)CN)ccc12 [H—Gly—AMC], which “D. immitis L3/L4 ES Activity” value (D. immitis L3/L4 ES) is on record?
A: Its value is “No”.

Q: With Cc1cc(=O)oc2cc(NC(=O)[C@@H](N)Cc3cnc[nH]3)ccc12 [H—His—AMC] as the compound, how does the “D. immitis L3/L4 ES Activity” value (D. immitis L3/L4 ES) read?
A: The value was “No”.

Q: How did the “D. immitis L3/L4 ES Activity” value (D. immitis L3/L4 ES) turn out when Cc1cc(=O)oc2cc(NC(=O)[C@@H](N)CC(C)C)ccc12 [H—Leu—AMC] was run?
A: The value was “No”.

Q: With Cc1cc(=O)oc2cc(NC(=O)[C@@H](N)CCCCN)ccc12 [H—Lys—AMC] as the compound, how does the “D. immitis L3/L4 ES Activity” value (D. immitis L3/L4 ES) read?
A: Its value is “No”.

Q: With CSCC[C@H](N)C(=O)Nc1ccc2ccccc2c1 [H—Met—NHNap] as the compound, how does the “D. immitis L3/L4 ES Activity” value (D. immitis L3/L4 ES) read?
A: The value was “No”.

Q: For Cc1cc(=O)oc2cc(NC(=O)[C@@H](N)Cc3ccccc3)ccc12 [H—Phe—AMC], which “cleavage of substrate by Tyr-DC” value [3] is on record?
A: The value was “cleave”.

Q: What about the “cleavage of substrate by Phe-DC” value [4] of the same compound?
A: The value was “cleave”.

Q: And the Km (Phe-DC [5])?
A: Its Km is 23.1 µM.

Q: What about the Vmax (Phe-DC [5]) of the same compound?
A: The Vmax was 0.619 pmol/mg/min.

Q: What about the “D. immitis L3/L4 ES Activity” value (D. immitis L3/L4 ES) of the same compound?
A: The value was “Yes”.

Q: And the Km (Di-ADC [6])?
A: Its Km is 32.1 µM.

Q: And the Vmax (Di-ADC [6])?
A: The Vmax was 0.234 pmol/mg/min.

Q: For Cc1cc(=O)oc2cc(NC(=O)[C@@H]3CCCN3)ccc12 [H—Pro—AMC], which “D. immitis L3/L4 ES Activity” value (D. immitis L3/L4 ES) is on record?
A: Its value is “No”.

Q: With Cc1cc(=O)oc2cc(NC(=O)C(N)CO)ccc12 (stereo not shown) [H—Ser—AMC] as the compound, how does the “D. immitis L3/L4 ES Activity” value (D. immitis L3/L4 ES) read?
A: The value was “No”.

Q: How did the “cleavage of substrate by Tyr-DC” value [3] turn out when Cc1cc(=O)oc2cc(NC(=O)[C@@H](N)Cc3c[nH]c4ccccc34)ccc12 [H—Trp—AMC] was run?
A: Its value is “cleave”.

Q: And the “cleavage of substrate by Phe-DC” value [4]?
A: The value was “cleave”.

Q: What about the Km (Phe-DC [5]) of the same compound?
A: The Km was 22.9 µM.

Q: And the Vmax (Phe-DC [5])?
A: The Vmax was 0.703 pmol/mg/min.

Q: And the “D. immitis L3/L4 ES Activity” value (D. immitis L3/L4 ES)?
A: The value was “Yes”.

Q: And the Km (Di-ADC [6])?
A: Its Km is 29.1 µM.

Q: What about the Vmax (Di-ADC [6]) of the same compound?
A: Its Vmax is 0.140 pmol/mg/min.

Q: Which “cleavage of substrate by Tyr-DC” value [3] does the source give for Cc1cc(=O)oc2cc(NC(=O)[C@@H](N)Cc3ccc(O)cc3)ccc12 [H—Tyr—AMC] here?
A: The value was “cleave”.

Q: And the “cleavage of substrate by Phe-DC” value [4]?
A: The value was “cleave”.

Q: What about the Km (Phe-DC [5]) of the same compound?
A: The Km was 72.3 µM.

Q: And the Vmax (Phe-DC [5])?
A: Its Vmax is 0.339 pmol/mg/min.

Q: And the “D. immitis L3/L4 ES Activity” value (D. immitis L3/L4 ES)?
A: The value was “Yes”.

Q: And the Km (Di-ADC [6])?
A: The Km was 35.1 µM.

Q: And the Vmax (Di-ADC [6])?
A: Its Vmax is 0.152 pmol/mg/min.

Q: What does the source list for N[C@@H](Cc1ccccc1)C(=O)O [L-phenylalanine]?
A: formation of CO2 (Di-ADC [7]; 5 μL Di-ADC): 0.7 mM; formation of CO2 (Di-ADC [7]; 10 μL Di-ADC): 0.38 mM; formation of CO2 (Di-ADC [7]; 20 μl Di-ADC): 0.4 mM; formation of CO2 (Phe-DC [8]): 0.27 mM

Q: What does the source list for O=S(=O)(F)Cc1ccccc1 [PMSF, Phenylmethane-7-sulfonyl fluoride]?
A: % Inhibition of molting of L3 larvae (D. immitis L3 larvae): 32.3% and 47.3% and 29.8%; inhibition of the molting of L3 to L4 (in words) (D. immitis L3 larvae): unable to completely inhibit the molting; inhibition of Di-ADC activity relative to Phe-DC or Tyr-DC activity (Di-ADC [1]): more strongly; sensitivity of the enzyme activity (H-Phe-AMC cleavage) to inhibitor (Di-ADC [1]): sensitive

Q: For Cl.NCCc1ccc(S(=O)(=O)F)cc1 [Pefabloc], which “effect on molting (in words)” value (D. immitis L3 larvae) is on record?
A: Its value is “no apparent effect on molting”.

Q: What about the “effect on the molt (in words)” value (D. immitis L3 larvae) of the same compound?
A: Its value is “inhibited the molt completely”.

Q: And the “inhibition of the molting process (in words)” value (D. immitis L3 larvae)?
A: The value was “completely inhibited the molting process”.

Q: What about the “inhibition of Phe-DC activity” value (Phe-DC [2]) of the same compound?
A: Its value is “at levels similar to the level that each inhibited Di-ADC”.

Q: What about the “inhibition of Tyr-DC activity” value (Tyr-DC) of the same compound?
A: Its value is “at levels similar to the level that each inhibited Di-ADC”.

Q: What about the “sensitivity of the enzyme activity (H-Phe-AMC cleavage) to inhibitor” value (Di-ADC [1]) of the same compound?
A: The value was “sensitive”.

Q: Which results are given for N[C@@H](Cc1ccc(O)c(O)c1)C(=O)O [dopa, L-dopa]?
A: dopamine formed (Phe-DC [9]): 9.4 nmol; dopamine formed (Di-ADC [10]): 2.74 nmol

Q: Ala-Ala-Phe-{AMC} was tested. Which “D. immitis L3/L4 ES Activity” value (D. immitis L3/L4 ES) did it give?
A: Its value is “No”.
